Measurements taken from patent US20250179047A1, “5-[7-(3,4-DIHYDRO-1H-ISOQUINOLINE-2-CARBONYL)-1,2,3,4 TETRAHYDROISOQUINOLIN-6-YL]-1H-PYRROLE-3-CARBOXAMIDE DERIVATIVES, PHARMACEUTICAL COMPOSITIONS CONTAINING THEM AND THEIR USES AS PRO-APOPTOTIC AGENTS” (LES LABORATOIRES SERVIER, priority 2022, published 2025).

Experiments:
platelets = test: Platelet depletion in SCID mice; format: in vivo; conditions: 25 mg/kg IV bolus, vs control group; for Platelet loss (%) 6 h: 6 h after dosing; for Platelet loss (%) 24 h: 24 h after dosing
Procedure, shortened: (§1)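 SCID mice received 25 mg/kg IV bolus in PEG/ethanol/0.9% NaCl (40/10/50). […] sampled 0.05–24 h for LC-MS/MS, with Cinf and AUC24 from non-compartmental analysis. Platelet counts by hematology analyzer at 6 h and 24 h, given as % loss versus a 6-animal control group.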

KMS12PE = test: In vitro cytotoxicity CellTiterGlo 72 h, KMS12PE; format: cell-based; conditions: Homo sapiens, KMS-12-PE, read-out: C50 nM, KMS12PE
Procedure: (§2) KMS-12-PE (ACC 606) were purchased from the Leibniz-Institute DSMZ (Braunschweig, Germany) and were grown at 37° C. in a humidified atmosphere with 5% CO2 in media recommended by the suppliers. Lentiviral particles containing Bcl-2 wild type (also named “Bcl2 WT”), Bcl-2 mutated on G101V (also named “Bcl2 G101V”), Bcl-2 mutated on D103Y (also named “Bcl2 D103Y”), Bcl-2 mutated on D103V (also named “Bcl2 D103V”), Bcl-2 mutated on D103E (also named “Bcl2 D103E”), Bcl-2 mutated on F104I (also named “Bcl2 F104I”), Bcl-2 mutated on F104L (also named “Bcl2 F104L”), Bcl-2 mutated on D111A (also named “Bcl2 D111A”), Bcl-2 mutated on A113G (also named “Bcl2 A113G”), Bcl-2 mutated on R129L (also named “Bcl2 R129L”), Bcl-2 mutated on V156D (also named “Bcl2 V156D”) were cloned into pcLV-CMV-DEST-IRES-TagRFP. Lentiviral particles (1×10^6) were mixed with Polybrene at 8 μg/ml and transduced by spinoculation for 1 h at 32° C. and incubated overnight. After 8 days, TagRFP positive-cells were sorted by FACS. BCL2 expression was monitored by immunoblotting using anti-Flag and anti-BCL2 antibodies. Cells were seeded into 96-wells plates and treated with 1:3.16 serial dilution of compounds (9 different concentrations). Cell viability was assessed using CellTiterGlo reagent following treatment for 72 h. Results were normalized to the viability of cells without compounds (control wells). The C50 values were calculated using nonlinear regression algorithms in XCell software.

[1] = Pharmacokinetics in SCID mice; format: in vivo; conditions: 25 mg/kg IV bolus; for PK parameters Cinf: concentration at the end of bolus administration; for AUC: mouse, blood, area under curve over 24 h, read-out: PK parameters AUC24
Procedure, shortened: as §1

KMS12PE Bcl2 V156D = test: In vitro cytotoxicity CellTiterGlo 72 h, KMS12PE Bcl2 V156D; format: cell-based; conditions: Homo sapiens, KMS-12-PE, read-out: C50 nM, KMS12PE Bcl2 V156D
Procedure: as §2

BCL2 D103Y = BCL2 D103Y (Homo sapiens, UniProt P10415, D103Y); test: TR-FRET competitive binding assay, BCL2 D103Y; conditions: Ki determined from IC50, read-out: TR_FRET EKI_Bcl2 D103Y
Procedure, shortened: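 Ki derived from IC50 (11-point dilution, 520/495 nm emission ratio) for displacing a fluorescein-labelled PUMA peptide (2 or 20 nM). Target was 0.5 nM E. coli-expressed Halo-tagged BCL2 (1-207) or BCLXL (2-196), terbium-labelled on Halo. Incubation 2 h at 23°C in pH 7.5 Hepes with 150 mM NaCl and 5% DMSO.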

KMS12PE Bcl2 A113G = test: In vitro cytotoxicity CellTiterGlo 72 h, KMS12PE Bcl2 A113G; format: cell-based; conditions: Homo sapiens, KMS-12-PE, read-out: C50 nM, KMS12PE Bcl2 A113G
Procedure: as §2

Row | Platelet loss (%) 6 h (platelets) [%] | Platelet loss (%) 24 h (platelets) [%] | PK parameters Cinf [1] [µM] | AUC [1] [µM·h] | Ki (BCL2 D103Y) [nM] | SMILES | IC50 (KMS12PE) [nM] | IC50 (KMS12PE Bcl2 V156D) [nM] | IC50 (KMS12PE Bcl2 A113G) [nM]
1 | 34.3 | 33.0 | 18.0 | 33.7 | 0.23 | COC[C@@H]1Cc2ccccc2CN1C(=O)c1cc2c(cc1-c1cc(C(=O)N(c3ccc(O)cc3)c3cc(C#N)n(C)c3C)c(C)n1C)CCN(C(=O)Cc1ccc(OCCC3CCOCC3)cc1F)C2 [Example 52, N-(5-cyano-1,2-dimethylpyrrol-3-yl)-5-[2-(2-{2-fluoro-4-[2-(oxan-4-yl)ethoxy]phenyl}acetyl)-7-{[(3S)-3-(methoxymethyl)-3,4-dihydro-1H-isoquinolin-2-yl]carbonyl}-3,4-dihydro-1H-isoquinolin-6-yl]-N-(4-hydroxyphenyl)-1,2-dimethylpyrrole-3-carboxamide] | 0.21 | 10.6 | 3.99
2 | 25.3 | 9.2 | 15.4 | 16.9 | 0.14 | Cc1c(N(C(=O)c2cc(-c3cc4c(cc3C(=O)N3Cc5ccccc5C[C@H]3CN3CCCCC3)CN(C(=O)Cc3ccc(OCCN5CCOCC5)cc3F)CC4)n(C)c2C)c2ccc(O)cc2)cc(C#N)n1C [Example 43, N-(5-cyano-1,2-dimethylpyrrol-3-yl)-5-[2-(2-{2-fluoro-4-[2-(morpholin-4-yl)ethoxy]phenyl}acetyl)-7-{[(3S)-3-(piperidin-1-ylmethyl)-3,4-dihydro-1H-isoquinolin-2-yl]carbonyl}-3,4-dihydro-1H-isoquinolin-6-yl]-N-(4-hydroxyphenyl)-1,2-dimethylpyrrole-3-carboxamide] | 0.22 | 6.63 | 2.5
